The numbers were not newly measured in patent US20250161389A1, “Herbal composition for the treatment of malaria” (RNA Therapeutics, Inc., priority 2023, published 2025), which cites them from elsewhere.

In general, IC50 refers to the concentration needed to halve the response being measured.

This data set relates to Plasmodium. The note with it: isolated compound, best activity.

For the compound `C=C(C)[C@@H]1CC[C@@]2(C)[C@H]1[C@@H]1CC[C@@H]3[C@@]4(C)CCC(=O)C(C)(C)[C@@H]4[C@H](O)C[C@@]3(C)[C@]1(C)C[C@@H]2O` [resinone (39), resinone], the IC50 is less than 1 µg/mL.
